Measurements published in PubChem BioAssay (NCI).
Values joined by “and” are separate entries in the source; they are usually repeats but may differ in a detail not shown here. Equal entries are not always repeated.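 96-well plates; 48 h exposure; 5 concentrations. Endpoints by linear interpolation between flanking doses. Not reached: highest tested concentration assigned. GI50 = concentration required for 50% inhibition of growth. At the TGI there is no net growth.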

Legend:
Assay in all cases: NCI-60 cell line screen, 48 h
[1] = tested on: OVCAR-5 ovarian
[2] = tested on: MOLT-4 leukemia
[3] = tested on: HCT-15 colon
[4] = tested on: NCI/ADR-RES ovarian
[5] = tested on: MDA-MB-435
[6] = tested on: EKVX NSCLC
[7] = tested on: K-562 leukemia
[8] = tested on: NCI-H23 lung
[9] = tested on: HCC-2998 colon
[10] = tested on: OVCAR-4 ovarian

Compound	TGI [1] [µM]	TGI [2]	TGI [3] [µM]	TGI [4] [µM]	TGI [5]	TGI [6] [µM]	TGI [7]	TGI [8] [µM]	TGI [9] [µM]	TGI [10]	GI50 [1] [µM]	GI50 [2] [µM]	GI50 [3]	GI50 [4] [µM]	GI50 [5]	GI50 [6]	GI50 [7] [µM]	GI50 [8] [µM]	GI50 [9] [µM]	GI50 [10]
CN(Cc1cc(Br)cc(Br)c1O)Cc1c(O)ccc2ccccc12	37.1	30 µM	> 100	> 100	40.3 µM	35.8	51.9 µM	50.6	37.9	34.9 µM	–	–	–	–	–	–	–	–	–	–
C[N+](C)(C)CC(=O)N/N=C(\C(=O)NC1=C(Cl)C(=O)c2ccccc2C1=O)C(C#N)c1nc(-c2ccc([N+](=O)[O-])cc2)cs1 (centres undefined)	26.3	53.7 µM	18.8	> 57.5	3.17 µM	34.2	61.1 µM	11.4	30.5	23.3 µM	–	–	–	–	–	–	–	–	–	–
CCN(CC)C(=S)SCN1C(=O)c2ccccc2S1(=O)=O	> 100	> 100 µM	> 100	> 64.9	> 100 µM	> 100	> 100 µM	> 91.1	> 78	> 100 µM	> 68.4	23.9	50.9 µM	> 44.3	60.9 µM	> 100 µM	24	45.5	40.8	35.4 µM
CCCN(CCC)c1ccc(/C=N/NC(=O)c2cccnc2)c(OC)c1	> 100	51.7 µM	> 100	> 100	43 µM	59.2	> 100 µM	> 100	98.4	82.8 µM	26.5	22.8	27.5 µM	24.8	10.3 µM	16.9 µM	22.2	26.1	26.6	23.5 µM
CCCCCCCCCCCCCCCCCCOCC(CCP(=O)(CP(=O)(O)O)Oc1ccccc1)OCCCCCCCCCCCCCCCCCC (centres undefined)	> 100	> 100 µM	> 100	> 100	> 100 µM	> 100	> 100 µM	> 100	> 100	> 100 µM	–	–	–	–	–	–	–	–	–	–
Clc1ccccc1CNc1c2ccccc2nc2ccccc12	9.09	16.3 µM	6.85	9.52	8.14 µM	9.85	41.7 µM	8.9	5.57	8.11 µM	2.16	1.84	1.69 µM	2.04	1.96 µM	2.77 µM	1.48	1.67	1.5	2.13 µM
CO/N=C(\COc1ccc2oc(-c3ccccc3)cc(=O)c2c1)c1ccc(OC)cc1	82.7	–	> 100	51.4	36.9 µM	> 100	> 100 µM	> 100	48.6	73.9 µM	24.6	–	30.2 µM	21.9	15 µM	37.3 µM	27.3	32.4	21.4	19.7 µM
O=C1c2ccccc2-c2c1c1c(O)cccc1n2Cc1ccccn1	> 100	> 100 µM	> 100	> 100	> 100 µM	70	79 µM	> 100	> 100	> 100 µM	58.5	91.4	53.8 µM	43.2	27.4 µM	17.6 µM	18.3	44.1	70.9	> 100 µM
O=C(N/N=C/c1ccc(O)cc1O)c1cccc(Nc2ccnc(C(F)(F)F)c2)c1	66.8	4.56 µM	51.7	> 90.1	20.8 µM	37.3	19.4 µM	27.4	18.1	51.5 µM	6.28	0.491	2.2 µM	9.05	0.861 µM	1.32 µM	0.587	3.8	0.778	0.573 µM
CC(=[N-])N1CCC[C@@H](Nc2c3ccccc3nc3ccccc23)C1.[Cl][Pt].[NH-]CCC[NH-]	36.4	> 100 µM	> 100	> 100	18.4 µM	36	> 100 µM	2.75	9.17	38.9 µM	2.89	0.359	2.37 µM	46	4.43 µM	2.17 µM	0.375	0.198	1.7	1.25 µM
C=C1C(=O)O[C@H]2[C@H]1CC/C(COC(=O)C(C)c1ccc(CC(C)C)cc1)=C\CC[C@@]1(C)O[C@@H]21 (some centres undefined)	3.46	2.02 µM	2.37	5.54	2.92 µM	3.35	1.96 µM	3.92	3.74	3.35 µM	1.8	0.42	0.871 µM	1.85	1.49 µM	1.75 µM	0.359	1.77	1.95	1.71 µM
CC(C)=CCC/C(C)=C\CCC1(C)OC(=O)C2CC21 (centres undefined)	> 100	50 µM and 35 µM	> 100	> 100	> 100 µM and 56.7 µM	> 100	48.4 µM and 40.5 µM	> 100	> 100	> 100 µM and 42.6 µM	–	–	83.8 µM and 24.7 µM	–	73.9 µM and 23.1 µM	> 100 µM and 40 µM	–	–	–	> 100 µM and 19.5 µM
Oc1ccc(C2c3ccccc3Oc3ccccc32)c2cccnc12	–	> 100 µM	> 100	> 100	> 100 µM	> 100	> 100 µM	> 100	> 100	> 100 µM	–	1.96	0.468 µM	1.59	3.07 µM	2 µM	1.37	2.26	1.89	2.08 µM
C/C(=N\NC(=S)SCc1ccccc1)c1ccccn1	9.71	–	12.1	< 0.0332	18.3 µM	< 0.01	2.95 µM	9.31	23.8	1.52 µM	–	–	–	–	–	–	–	–	–	–
